In patent US20250041267A1, “TREATEMENT FOR CRYOPYRIN ASSOCIATED PERIODIC SYNDROMES (CAPS)” (Zydus Lifesciences Limited, priority 2021, published 2025):
Read-outs that look alike come from different tables or passages of the source.

Key:
[1] = Phase 1 single oral dose pharmacokinetics in healthy subjects (plasma and urine, LC-MS/MS); assay type: in vivo, human; conditions: for half-life / Cmax / dose excreted: human; for half-life / Cmax: plasma; for half-life: read-out: mean elimination half-life (converted); for dose excreted: urine, read-out: mean cumulative percentage urinary recovery of unchanged compound
[2] = test system: activated THP-1 cells, hPBMCs and whole blood; assay: IL-1β and IL-18 secretion from cells treated with LPS and ATP; assay type: cell-based, human
Protocol: Compound 11, a potent NLRP3 inflammazome inhibitor blocks the IL-1β and IL-18 secretion from activated THP-1 cells, hPBMCs (Human peripheral blood mononuclear cell) and whole blood treated with LPS (lipopolysaccharide) and ATP (Adenosine triphosphate). For the whole blood assay, human peripheral venous blood was collected from healthy volunteers following the protocol approved by ethics committee. Whole blood was distributed in 96-well plates and primed with LPS (500 ng/mL) for 4 hours. Different concentrations of compound 11 was added in the presence of serum free media. NLRP3 inflammasome was induced with ATP (5 mM) for 1 hour. The supernatant was collected at the end of 1 hour and assayed for released IL-1β using the ELISA method. The inhibition in the cytokine levels was plotted and the half maximal inhibitory concentration was derived.

[3] = Phase 1 single oral dose safety and tolerability in healthy subjects; assay type: in vivo, human; conditions: till 100 mg single dose
[4] = 25 mg single oral dose, cohort S1
[5] = 50 mg single oral dose, cohort S2
[6] = 100 mg single oral dose, cohort S3

mean plasma clearance [1, 4]: 0.922 ± 0.01 L/h | mean volume of distribution [1, 4]: 8681.147 ± 929.14 mL | mean plasma clearance [1, 5]: 1.238 ± 0.22 L/h | mean volume of distribution [1, 5]: 10285.52 ± 1174.32 mL | mean plasma clearance [1, 6]: 1.099 ± 0.15 L/h | mean volume of distribution [1, 6]: 9847.576 ± 825.72 mL | half-life ([1]; oral, across all three doses (25, 50, 100 mg)): 6 to 6.5 h | Cmax [1, 4]: 3390 ± 720 ng/mL | half-life [1, 4]: 6.53 ± 0.67 h | Cmax [1, 5]: 5720 ± 520 ng/mL | half-life [1, 5]: 5.82 ± 0.47 h | half-life [1, 6]: 6.28 ± 0.65 h | dose excreted [1, 4]: 93.3% | dose excreted [1, 5]: 69.1% | dose excreted [1, 6]: 76.6%
SMILES: CN1CCC[C@]1(C)/C=C/S(=O)(=O)NC(=O)Nc1c2c(cc3c1CCC3)CCC2 [Compound 11, (R,E)-2-(1,2-dimethylpyrrolidin-2-yl)-N-((1,2,3,5,6,7-hexahydro-s-indacen-4-yl)carbamoyl)ethene-1-sulfonamide]
IL-1β and IL-18 secretion [2]: blocks | safety and tolerability [3]: safe and well tolerated
